Source: patent publication US20260315494A1, “TREATMENT OF BREAST TISSUE” (Havah Therapeutics Pty Ltd, priority 2023, published 2026)
Where “and” joins values, the source holds several entries; their conditions need not be identical. Identical values can stand only once.

Assay: Single-dose pharmacokinetics of T+Ai pellet implant (80 mg testosterone + 4 mg anastrozole, subcutaneous)
Conditions: for concentration at 24 h: 24 h post-dose
Method: The premenopausal women were aged between 35 and 55 years of age with a BMI range of 20-30 kg/m^2. […] The implant was intended to be left in situ and was expected to be almost completely absorbed within three months following insertion.
A total of 11 subjects were dosed with the implant and included in the safety analysis set. All 11 subjects were included in the pharmacokinetics (PK) analysis set.
(NB: the sample collection time point at 6 hours post-dose was added for the third and subsequent subject and so serum measurements were not determined for the first two subjects as noted below).
Patients seeking treatment with the T+Ai for reduction in high MBD were eligible for the study. Following successful screening, subjects attended the Wellend Health Clinic for dosing. The trial was designed to dose all subjects while in the luteal phase of their menstrual cycle to avoid the highly changing hormonal environment of the follicular phase. Following insertion of the implant, PK blood sampling was carried out for a duration of three months (see below). Briefly, samples were taken repeatedly on the day of dosing, daily during the first week, weekly for the next four weeks and every second week during the last eight weeks of a total sampling period of three months.
The sampling schedule was revised with the addition of one blood sample (at 6 hours post-dose as discussed above), and no adjustment of the timing of existing time points was made. The duration of sampling was not extended.
Following dosing on Day 1, blood samples were taken pre-dose (within one hour of dosing) and at 1, 2, 4, 6, 8 and 12 hours. Participants returned for a blood sample to be taken at 9 am in the morning on Days 2, 3, 4, 5, 8, 15, 22, 29, 43, 57, 71 and 85.

CC(C)(C#N)c1cc(Cn2cncn2)cc(C(C)(C)C#N)c1 [Anastrozole, 2,2′-[5-(1H-1,2,4-triazol-1-ylmethyl)-1,3-phenylene]bis(2-methylpropanenitrile)]
anastrozole level versus conventional full oral dosing (compared with conventional full oral dosing): 5 times lower
Tmax (human, in vivo, sc, 4 mg): 24 to 72 h
concentration at 1008 h (human, in vivo, sc, 4 mg, Measured serum anastrozole, GeoMean, geometric mean (BLQ excluded), 1008 h post-dose): 0.49 ng/mL
concentration at 1344 h (human, in vivo, sc, 4 mg, Measured serum anastrozole, GeoMean, geometric mean (BLQ excluded), 1344 h post-dose): 0.3 ng/mL
concentration at 1680 h (human, in vivo, sc, 4 mg, Measured serum anastrozole, GeoMean, geometric mean (BLQ excluded), 1680 h post-dose): 0.26 ng/mL
concentration at 2016 h (human, in vivo, sc, 4 mg, Measured serum anastrozole, GeoMean, geometric mean (BLQ excluded), 2016 h post-dose): 0.21 ng/mL
concentration at 1 h (human, in vivo, sc, 4 mg, Measured serum anastrozole, GeoMean, geometric mean, 1 h post-dose): 0.35 ng/mL
concentration at 2 h (human, in vivo, sc, 4 mg, Measured serum anastrozole, GeoMean, geometric mean, 2 h post-dose): 0.61 ng/mL
concentration at 4 h (human, in vivo, sc, 4 mg, Measured serum anastrozole, GeoMean, geometric mean, 4 h post-dose): 1.15 ng/mL
concentration at 6 h (human, in vivo, sc, 4 mg, Measured serum anastrozole, GeoMean, geometric mean, 6 h post-dose): 2.31 ng/mL
concentration at 8 h (human, in vivo, sc, 4 mg, Measured serum anastrozole, GeoMean, geometric mean, 8 h post-dose): 3.23 ng/mL
concentration at 12 h (human, in vivo, sc, 4 mg, Measured serum anastrozole, GeoMean, geometric mean, 12 h post-dose): 3.97 ng/mL
concentration at 24 h (human, in vivo, sc, 4 mg, Measured serum anastrozole, GeoMean, geometric mean): 4.77 ng/mL
concentration at 48 h (human, in vivo, sc, 4 mg, Measured serum anastrozole, GeoMean, geometric mean, 48 h post-dose): 4.98 ng/mL
concentration at 72 h (human, in vivo, sc, 4 mg, Measured serum anastrozole, GeoMean, geometric mean, 72 h post-dose): 4.92 ng/mL
concentration at 96 h (human, in vivo, sc, 4 mg, Measured serum anastrozole, GeoMean, geometric mean, 96 h post-dose): 4.58 ng/mL
concentration at 168 h (human, in vivo, sc, 4 mg, Measured serum anastrozole, GeoMean, geometric mean, 168 h post-dose): 3.5 ng/mL
concentration at 504 h (human, in vivo, sc, 4 mg, Measured serum anastrozole, GeoMean, geometric mean, 504 h post-dose): 1.42 ng/mL
concentration at 24 h (human, in vivo, sc, 4 mg, Measured serum anastrozole, individual subject): 6.08 ng/mL
concentration at 48 h (human, in vivo, sc, 4 mg, Measured serum anastrozole, individual subject, 48 h post-dose): 6.17 ng/mL
concentration at 72 h (human, in vivo, sc, 4 mg, Measured serum anastrozole, individual subject, 72 h post-dose): 4.94 ng/mL
concentration at 96 h (human, in vivo, sc, 4 mg, Measured serum anastrozole, individual subject, 96 h post-dose): 4.36 ng/mL
concentration at 168 h (human, in vivo, sc, 4 mg, Measured serum anastrozole, individual subject, 168 h post-dose): 2.84 ng/mL
concentration at 1 h (human, in vivo, sc, 4 mg, Measured serum anastrozole, mean, 1 h post-dose): 0.38 ng/mL
concentration at 2 h (human, in vivo, sc, 4 mg, Measured serum anastrozole, mean, 2 h post-dose): 0.7 ng/mL
concentration at 4 h (human, in vivo, sc, 4 mg, Measured serum anastrozole, mean, 4 h post-dose): 1.37 ng/mL
concentration at 6 h (human, in vivo, sc, 4 mg, Measured serum anastrozole, mean, 6 h post-dose): 2.58 ng/mL
concentration at 8 h (human, in vivo, sc, 4 mg, Measured serum anastrozole, mean, 8 h post-dose): 3.44 ng/mL
concentration at 12 h (human, in vivo, sc, 4 mg, Measured serum anastrozole, mean, 12 h post-dose): 4.06 ng/mL
concentration at 24 h (human, in vivo, sc, 4 mg, Measured serum anastrozole, mean): 4.84 ng/mL
concentration at 48 h (human, in vivo, sc, 4 mg, Measured serum anastrozole, mean, 48 h post-dose): 5.06 ng/mL
concentration at 72 h (human, in vivo, sc, 4 mg, Measured serum anastrozole, mean, 72 h post-dose): 4.96 ng/mL
concentration at 96 h (human, in vivo, sc, 4 mg, Measured serum anastrozole, mean, 96 h post-dose): 4.62 ng/mL
concentration at 168 h (human, in vivo, sc, 4 mg, Measured serum anastrozole, mean, 168 h post-dose): 3.57 ng/mL
concentration at 504 h (human, in vivo, sc, 4 mg, Measured serum anastrozole, mean, 504 h post-dose): 1.47 ng/mL
concentration at 1008 h (human, in vivo, sc, 4 mg, Measured serum anastrozole, mean, 1008 h post-dose): 0.49 ng/mL
concentration at 1344 h (human, in vivo, sc, 4 mg, Measured serum anastrozole, mean, 1344 h post-dose): 0.22 ng/mL
concentration at 1680 h (human, in vivo, sc, 4 mg, Measured serum anastrozole, mean, 1680 h post-dose): 0.1 ng/mL
concentration at 2016 h (human, in vivo, sc, 4 mg, Measured serum anastrozole, mean, 2016 h post-dose): 0.04 ng/mL
concentration at 1 h (human, in vivo, sc, 4 mg, Measured serum anastrozole, median, 1 h post-dose): 0.32 ng/mL
concentration at 2 h (human, in vivo, sc, 4 mg, Measured serum anastrozole, median, 2 h post-dose): 0.62 ng/mL
concentration at 4 h (human, in vivo, sc, 4 mg, Measured serum anastrozole, median, 4 h post-dose): 1.12 ng/mL
concentration at 6 h (human, in vivo, sc, 4 mg, Measured serum anastrozole, median, 6 h post-dose): 3.08 ng/mL
concentration at 8 h (human, in vivo, sc, 4 mg, Measured serum anastrozole, median, 8 h post-dose): 3.5 ng/mL
concentration at 12 h (human, in vivo, sc, 4 mg, Measured serum anastrozole, median, 12 h post-dose): 4.32 ng/mL
concentration at 24 h (human, in vivo, sc, 4 mg, Measured serum anastrozole, median): 4.96 ng/mL
concentration at 48 h (human, in vivo, sc, 4 mg, Measured serum anastrozole, median, 48 h post-dose): 5.05 ng/mL
concentration at 72 h (human, in vivo, sc, 4 mg, Measured serum anastrozole, median, 72 h post-dose): 4.92 ng/mL
concentration at 96 h (human, in vivo, sc, 4 mg, Measured serum anastrozole, median, 96 h post-dose): 4.6 ng/mL
concentration at 168 h (human, in vivo, sc, 4 mg, Measured serum anastrozole, median, 168 h post-dose): 3.58 ng/mL
concentration at 504 h (human, in vivo, sc, 4 mg, Measured serum anastrozole, median, 504 h post-dose): 1.36 ng/mL
concentration at 1008 h (human, in vivo, sc, 4 mg, Measured serum anastrozole, median, 1008 h post-dose): 0.4 ng/mL
concentration at 1344 h (human, in vivo, sc, 4 mg, Measured serum anastrozole, median, 1344 h post-dose): 0.16 ng/mL
concentration at 2016 h (human, in vivo, sc, 4 mg, plasma anastrozole concentration after 12 weeks, below limit of quantitation in most participants after 12 weeks): < 0.1 ng/mL
Measured serum anastrozole (individual subject, 1 h post-dose, 60 min): 0.215 ng/mL and 0.525 ng/mL and 0.218 ng/mL and 0.515 ng/mL and 0.394 ng/mL and 0.127 ng/mL and 0.855 ng/mL and 0.321 ng/mL and 0.243 ng/mL and 0.751 ng/mL
Measured serum anastrozole (individual subject, 2 h post-dose, 120 min): 0.404 ng/mL and 0.615 ng/mL and 1.30 ng/mL and 0.887 ng/mL and 0.831 ng/mL and 0.306 ng/mL and 1.04 ng/mL and 0.596 ng/mL and 0.509 ng/mL and 0.180 ng/mL and 1.02 ng/mL
Measured serum anastrozole (individual subject, 4 h post-dose, 240 min): 1.03 ng/mL and 2.97 ng/mL and 2.23 ng/mL and 0.902 ng/mL and 1.50 ng/mL and 0.582 ng/mL and 2.11 ng/mL
Measured serum anastrozole (individual subject, 6 h post-dose, 360 min): 3.11 ng/mL and 3.07 ng/mL and 3.42 ng/mL (2×) and 1.63 ng/mL and 3.21 ng/mL and 1.62 ng/mL and 0.651 ng/mL
Measured serum anastrozole (individual subject, 8 h post-dose, 480 min): 4.28 ng/mL and 3.41 ng/mL and 3.48 ng/mL and 4.75 ng/mL and 4.16 ng/mL and 2.18 ng/mL and 3.66 ng/mL and 3.33 ng/mL and 1.06 ng/mL and 3.99 ng/mL
Measured serum anastrozole (individual subject, 12 h post-dose, 720 min): 5.13 ng/mL and 3.27 ng/mL and 4.42 ng/mL and 3.87 ng/mL and 3.32 ng/mL and 4.86 ng/mL and 4.18 ng/mL and 2.25 ng/mL
Measured serum anastrozole (individual subject, 48 h post-dose, 2880 min): 3.95 ng/mL and 5.85 ng/mL and 5.58 ng/mL and 6.07 ng/mL and 4.85 ng/mL and 3.31 ng/mL and 5.28 ng/mL
Measured serum anastrozole (individual subject, 72 h post-dose, 4320 min): 4.72 ng/mL and 5.16 ng/mL and 5.00 ng/mL and 6.29 ng/mL and 5.68 ng/mL and 4.76 ng/mL and 3.66 ng/mL and 4.85 ng/mL
Measured serum anastrozole (individual subject, 96 h post-dose, 5760 min): 4.12 ng/mL and 4.67 ng/mL and 5.17 ng/mL
Measured serum anastrozole (individual subject, 168 h post-dose, 10080 min): 4.35 ng/mL
Measured serum anastrozole (individual subject, 504 h post-dose, 30240 min): 1.70 ng/mL and 1.83 ng/mL and 1.59 ng/mL
Measured serum anastrozole (individual subject, 1008 h post-dose, 60480 min): 0.332 ng/mL and 0.665 ng/mL and 0.505 ng/mL and 0.624 ng/mL
Measured serum anastrozole (individual subject, 1344 h post-dose, 80640 min): 0.144 ng/mL and 0.279 ng/mL
Measured serum anastrozole (individual subject, 1680 h post-dose, 100800 min): 0.143 ng/mL
Measured serum anastrozole, mean (mean, pre-dose): 0.00 ng/mL
Measured serum anastrozole, median (median, pre-dose): 0.00 ng/mL
average Cmax, plasma anastrozole (plasma): 5.30 ng/mL
average terminal half-life, anastrozole (plasma): 14 days
median Tmax for plasma anastrozole (plasma, post-dose): 2 days
